# ChEMBL document CHEMBL1134898, “Synthesis and biological evaluation of novel D-2'-azido-2',3'-dideoxyarabinofuranosyl-4'-thiopyrimidines and purines” (Bioorg Med Chem Lett, 2002)
# Assays:
# Human alphaherpesvirus 2 = assay: Compound was tested for antiviral activity against HSV-2; type: functional, organism-based
# MT4 [1] = assay: Cytotoxicity indicative of 50% survival concentration in virus-uninfected MT-4 cells.; type: functional; conditions: Homo sapiens
# Human alphaherpesvirus 1 = assay: Compound was tested for antiviral activity against HSV-1; type: functional, organism-based
# MT4 [2] = assay: Compound was tested for antiviral activity indicative of 50% cytopathic concentration in virus (HIV-1) infected MT-4 cells.; type: functional, cell-based; conditions: Homo sapiens
# MT4 [3] = assay: Cytotoxicity indicative of 50% survival concentration in virus -uninfected MT-4 cells.; type: functional; conditions: Homo sapiens
# MT4 [4] = assay: Cytotoxicity indicative of 50% survival concentration in HSV-1-uninfected MT-4 cells.; type: functional; conditions: Homo sapiens
# MT4 [5] = assay: Cytotoxicity indicative of 50% survival concentration in HSV-2-uninfected MT-4 cells.; type: functional; conditions: Homo sapiens
Compound,EC50 (Human alphaherpesvirus 2) [mg/L],EC50 (Human alphaherpesvirus 1) [mg/L],CC50 (MT4 [1]) [mg/L],EC50 (MT4 [2]) [mg/L],CC50 (MT4 [3]) [mg/L],CC50 (MT4 [4]) [mg/L],CC50 (MT4 [5]) [mg/L]
[N-]=[N+]=NC1C[C@@H](CO)S[C@@H]1n1ccc(N)nc1=O (stereo not given in full),> 100,> 100,> 100,> 100,–,–,–
[N-]=[N+]=N[C@H]1C[C@@H](CO)S[C@H]1n1ccc(N)nc1=O,> 100,> 100,–,> 41.7,41.7,–,–
Cc1cn([C@H]2S[C@H](CO)C[C@@H]2N=[N+]=[N-])c(=O)[nH]c1=O,> 100,> 100,63.5,> 63.5,–,–,–
Cc1cn([C@@H]2S[C@H](CO)C[C@@H]2N=[N+]=[N-])c(=O)[nH]c1=O,> 100,> 100,56.1,> 56.5,–,–,–
Nc1nc2c(ncn2COCCO)c(=O)[nH]1 [ACYCLOVIR],0.88,0.13,–,–,–,> 76.6,> 11.4
Cc1cn([C@H]2C[C@H](N=[N+]=[N-])[C@@H](CO)O2)c(=O)[nH]c1=O [ZIDOVUDINE],> 100,0.52,0.52,0.0005,–,–,–

# Second part, led by results:
EC50 (Human alphaherpesvirus 2) [mg/L],EC50 (Human alphaherpesvirus 1) [mg/L],Compound,CC50 (MT4 [1]) [mg/L],EC50 (MT4 [2]) [mg/L],CC50 (MT4 [3]) [mg/L],CC50 (MT4 [4]) [mg/L],CC50 (MT4 [5]) [mg/L]
> 100,> 100,[N-]=[N+]=N[C@H]1C[C@@H](CO)S[C@@H]1n1cnc2c(N)ncnc21,17.3,> 17.3,–,–,–
> 100,> 100,[N-]=[N+]=N[C@H]1C[C@@H](CO)S[C@H]1n1cnc2c(N)ncnc21,66.6,> 66.6,–,–,–
> 100,> 100,CNc1ncnc2c1ncn2[C@H]1S[C@H](CO)C[C@@H]1N=[N+]=[N-],61.5,> 61.5,–,–,–
> 100,> 100,"CNc1ncnc2c1ncn2[C@@H]1SC(CO)C[C@@H]1N=[N+]=[N-] (single isomer, unassigned)",48.1,> 48.1,–,–,–
